Measured values as given in US20110319362A1, “STAT3 LIGANDS AND THERAPEUTIC USES THEREOF” (priority 2008, published 2011).
Read-outs that look alike come from different tables or passages of the source. Where a SMILES comes first, the peptide text is derived from it. [ ]: non-standard residue; d: D form. The star is where a group is joined. 5FAM = O=C1OC2(c3ccc(O)cc3Oc3cc(O)ccc32)c2ccc(C(=O)*)cc21; pY = N[C@@H](Cc1ccc(OP(=O)(O)O)cc1)C(=O)O; βAla = NCCC(=O)O

How the values were obtained:
STAT3 protein = target: T1, STAT3 protein (Homo sapiens, UniProt P40763); assay: In vitro competitive STAT3 binding assay (fluorescence polarization)
T1 construct: human STAT3 protein (residues 122-722) fused to His-tag; His-tag
Source text: To quantitatively determine the binding affinities of STAT3 inhibitors to STAT3 protein, a sensitive and quantitative in vitro binding assay was developed based upon fluorescence polarization (FP) method. For this FP assay, 5-carboxyfluorescein (5-Fam) was coupled to a phosphopeptide (phospho-Tyr-Leu-Pro-Gln-Thr-Val-amide) with two beta-alanine and one glycine residues as the spacer between 5-Fam and the phosphopeptide to obtain 5-Fam-beta-Ala-beta-Ala-Gly-phospho-Tyr-Leu-Pro-Gln-Thr-Val-amide as the fluorescently tagged tracer, which was named as STT2 peptide. […] The recombinant human STAT3 protein (residues 122-722) fused to His-tag was stable and soluble.
Competitive binding experiments were carried out using 150 nM of STAT3 protein and 5 nM of STT2 peptide with different concentrations of a tested STAT3 inhibitor. For each experiment, two controls were included. One control contained STAT3 protein and STT2 peptide, and the second control contained STT2 peptide only. The polarization values were measured after 2-3 hours of incubation using an ULTRA READER (Tecan U.S. Inc., Research Triangle Park, N.C.). IC50 values, the inhibitor concentration at which 50% of the fluorescently tagged STT2 peptide is displaced by STAT3 inhibitors, was determined from a plot using nonlinear least-squares analysis using GRAPHPAD PRISM software (GraphPad Software, Inc., San Diego, Calif.). […]

[1] = system: MDA-MB-231 cancer cell line; assay: Cell growth assay (WST-8); assay type: cell-based; conditions: Homo sapiens, MDA-MB-231, 96 h, WST-8, 4 days
Protocol: (§1) The effect of STAT3 compounds on cell growth was evaluated by a WST-8 [2-(2-methoxy-4-nitrophenyl)-3-(4-nitrophenyl)-5-(2,4-disulfophenyl)-2H-tetrazolium, monosodium salt assay (Dojindo Molecular Technologies, Inc). Cells (3000-4000 cells in each well) were cultured in 96-well tissue culture plates in medium (200 μL) containing various concentrations of STAT3 compounds for 4 days. At the end of incubation, WST-8 dye (20 μL) was added to each well and incubated for an additional 1-3 h, and then the absorbance was measured in a microplate reader (Molecular Devices) at 450 nm. Cell growth inhibition was evaluated as the ratio of the absorbance of the sample to that of the control.

[2] = system: MDA-MB-468 cancer cell line; assay: Cell growth assay (WST-8); assay type: cell-based; conditions: Homo sapiens, MDA-MB-468, 96 h, WST-8, 4 days
Protocol: as §1

[3] = FP competitive binding, fluorescently tagged STT2 peptide tracer, read-out: Binding affinities to STAT3 IC50
[4] = read-out: Inhibition of cell growth IC50, MDA-MB-231 cancer cell line
[5] = read-out: Inhibition of cell growth IC50, MDA-MB-468 cancer cell line
[6] = Table 2 prints no column heads, columns and unit as in Table 1, read-out: Inhibition of cell growth IC50, MDA-MB-468 cancer cell line (pro-drugs, Table 2)
[7] = Table 2 prints no column heads, columns and unit as in Table 1, read-out: Inhibition of cell growth IC50, MDA-MB-231 cancer cell line (pro-drugs, Table 2)

T1 sequence (P40763 122-722): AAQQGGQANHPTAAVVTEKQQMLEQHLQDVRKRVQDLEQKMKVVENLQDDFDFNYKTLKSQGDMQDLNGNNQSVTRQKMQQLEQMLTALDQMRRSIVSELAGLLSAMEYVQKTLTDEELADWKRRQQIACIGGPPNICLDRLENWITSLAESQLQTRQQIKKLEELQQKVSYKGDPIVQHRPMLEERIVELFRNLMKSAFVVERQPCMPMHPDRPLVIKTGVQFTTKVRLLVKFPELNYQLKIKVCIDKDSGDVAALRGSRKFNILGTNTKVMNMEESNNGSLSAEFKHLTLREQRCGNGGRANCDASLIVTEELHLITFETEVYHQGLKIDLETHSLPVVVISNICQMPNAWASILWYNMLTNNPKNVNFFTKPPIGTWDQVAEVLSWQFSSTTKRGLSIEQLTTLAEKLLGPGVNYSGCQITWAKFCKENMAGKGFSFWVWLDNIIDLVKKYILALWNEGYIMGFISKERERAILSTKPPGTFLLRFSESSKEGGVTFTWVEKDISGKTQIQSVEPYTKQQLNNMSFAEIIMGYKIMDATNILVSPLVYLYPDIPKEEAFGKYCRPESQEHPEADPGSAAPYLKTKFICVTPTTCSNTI

## CN[C@H](Cc1ccc(OCP(=O)(O)O)cc1)C(=O)N[C@H]1CCCCC2CC[C@@H](C(=O)N[C@@H](Cc3c[nH]cn3)C(=O)NCc3ccccc3)N2C1=O (some centres unmarked)
STAT3 protein; [3]
  IC50: < 100 µM
[1]; [4]
  IC50: > 100 µM
[2]; [5]
  IC50: > 100 µM

## NC(=O)CC[C@H](NC(=O)[C@@H]1CCC2CCCC[C@H](NC(=O)[C@@H](N)Cc3ccc(OP(=O)(O)O)cc3)C(=O)N21)C(=O)NCc1ccccc1 (some centres unmarked)
STAT3 protein
  IC50: < 1 µM
[1]; [4]
  IC50: > 20 µM
[2]; [5]
  IC50: > 100 µM

## CC(C)OC(=O)OCOP(=O)(OCOC(=O)OC(C)C)C(F)(F)c1ccc2[nH]c(C(=O)N[C@H]3CCCCC4CC[C@@H](C(=O)NC(CCC(N)=O)C(=O)NCc5ccccc5)N4C3=O)cc2c1 (some centres unmarked) [Example 68]
[2]; [6]
  IC50: > 100 µM

## CC(C)C[C@H](NC(=O)[C@H](Cc1ccc(OP(=O)(O)O)cc1)NC(=O)CNC(=O)CCNC(=O)CCNC(=O)c1ccc2c(c1)C(=O)OC21c2ccc(O)cc2Oc2cc(O)ccc21)C(=O)N1CCC[C@H]1C(=O)N[C@@H](CCC(N)=O)C(=O)N[C@H](C(=O)N[C@H](C(N)=O)C(C)C)[C@@H](C)O [STT2 peptide, 5-Fam-beta-Ala-beta-Ala-Gly-phospho-Tyr-Leu-Pro-Gln-Thr-Val-amide, reference compound] ({5FAM-βAla-βAla}-G[pY]LPQTV-NH2)
STAT3 protein
  Kd: 0.047 µM

## CC(C)(C)C(=O)OCOP(=O)(OCOC(=O)C(C)(C)C)C(F)(F)c1ccc2[nH]c(C(=O)N[C@H]3CCCCC4CC[C@@H](C(=O)NCCc5cn[nH]c5)N4C3=O)cc2c1 (some centres unmarked) [Example 63]
[2]; [6]
  IC50: < 50 µM

## CC(=O)N[C@@H](Cc1ccc(OCP(=O)(O)O)cc1)C(=O)N[C@H]1CCCCC2CC[C@@H](C(=O)N[C@@H](CCC(N)=O)C(=O)NCc3ccccc3)N2C1=O (stereo in doubt) [Example 31]
STAT3 protein
  IC50: < 10 µM
[1]; [4]
  IC50: > 100 µM

## CC(C)(C)C(=O)OCOP(=O)(COc1ccc(C[C@H](NC(=O)OCc2ccccc2)C(=O)N[C@H]2CCCCC3CC[C@@H](C(=O)N[C@@H](CCC(N)=O)C(=O)NCc4ccccc4)N3C2=O)cc1)OCOC(=O)C(C)(C)C (some centres unmarked)
[1]; [7]
  IC50: > 50 µM
[2]; [6]
  IC50: > 50 µM

## CCOP(=O)(OCC)C(F)(F)c1ccc2c(c1)cc(C(=O)N[C@H]1CCCCC3CC[C@@H](C(=O)NC(CCC(N)=O)C(=O)NCc4ccccc4)N3C1=O)n2C (some centres unmarked) [Example 62]
[2]; [6]
  IC50: > 100 µM

## CCCCCCCCN(CCCCCCCC)[C@@H](Cc1ccc(OP(=O)(O)O)cc1)C(=O)N[C@H]1CCCCC2CC[C@@H](C(=O)N[C@@H](CCC(N)=O)C(=O)NCc3ccccc3)N2C1=O (some centres unmarked)
STAT3 protein; [3]
  IC50: < 100 µM
[1]; [4]
  IC50: > 100 µM

## CCCCCCCCCCCCCCCCN1CCN(CCC(=O)N[C@@H](Cc2ccc(OP(=O)(O)O)cc2)C(=O)N[C@H]2CCCCC3CC[C@@H](C(=O)NCCc4nnn[nH]4)N3C2=O)CC1 (some centres unmarked)
[1]; [4]
  IC50: < 50 µM
[2]; [5]
  IC50: < 50 µM

## CN(C)[C@@H](Cc1ccc(CP(=O)(O)O)cc1)C(=O)N[C@H]1CCCC[C@H]2CC[C@@H](C(=O)N[C@@H](Cc3c[nH]cn3)C(=O)NCc3ccccc3)N2C1=O [Example 28]
STAT3 protein; [3]
  IC50: > 10 µM
[2]; [5]
  IC50: > 100 µM

## CC(C)(C)C(=O)OCOP(=O)(OCOC(=O)C(C)(C)C)C(F)(F)c1ccc(/C=C/C(=O)N[C@H]2CCCCC3CC[C@@H](C(=O)N[C@@H](CCC(N)=O)C(=O)NCc4ccccc4)N3C2=O)cc1 (some centres unmarked)
[2]; [6]
  IC50: > 100 µM

## CC(=O)N[C@@H](Cc1ccc(CP(=O)(O)O)cc1)C(=O)N[C@H]1CCCC[C@H]2CC[C@@H](C(=O)N[C@@H](Cc3c[nH]cn3)C(=O)NCc3ccccc3)N2C1=O [Example 27]
STAT3 protein
  IC50: > 10 µM
[1]; [4]
  IC50: > 100 µM

## CC(C)(C)C(=O)OCOP(=O)(OCOC(=O)C(C)(C)C)C(F)(F)c1ccc(/C=C/C(=O)N[C@H]2CCCCC3CC[C@@H](C(=O)NCCc4cn[nH]c4)N3C2=O)cc1 (some centres unmarked)
[2]; [6]
  IC50: < 30 µM

## CCOP(=O)(O)CCCCCC(=O)N[C@H]1CCCC[C@H]2CC[C@@H](C(=O)N[C@@H](CCC(N)=O)C(=O)NCc3ccccc3)N2C1=O [Example 23]
STAT3 protein; [3]
  IC50: > 100 µM
[1]; [4]
  IC50: > 100 µM

## CCCCCCCCCCCCCCCCNC(=O)C(CCC(N)=O)NC(=O)[C@@H]1CCC2CCCC[C@H](NC(=O)c3cc4cc(C(F)(F)P(=O)(O)O)ccc4[nH]3)C(=O)N21 (some centres unmarked) [Example 66]
STAT3 protein
  IC50: < 1 µM
[2]; [5]
  IC50: > 100 µM

## CCCCCCCCCCCCCCCCOP(=O)(O)C(F)(F)c1ccc2cc(C(=O)N[C@H]3CCCC[C@H]4CC[C@@H](C(=O)NCCc5cn[nH]c5)N4C3=O)[nH]c2c1
[2]; [6]
  IC50: > 100 µM

## CCCCCCCCCCCCCCCCOP(=O)(O)C(F)(F)c1ccc2cc(C(=O)N[C@H]3CCCC[C@H]4CC[C@@H](C(=O)NC(CCC(N)=O)C(=O)NCc5ccccc5)N4C3=O)[nH]c2c1 (some centres unmarked)
[2]; [6]
  IC50: > 50 µM

## NC(=O)CC[C@H](NC(=O)[C@@H]1CCC2CCCC[C@H](NC(=O)[C@H](Cc3ccc(OP(=O)(O)O)cc3)NC(=O)CCOCCOCCOCCOCCNC(=O)CCCCC3SCC4NC(=O)NC43)C(=O)N21)C(=O)NCc1ccccc1 (some centres unmarked)
STAT3 protein
  IC50: < 1 µM

## CCCCCCCCCCCCCCCCOP(=O)(OCCCCCCCCCCCCCCCC)C(F)(F)c1ccc2cc(C(=O)N[C@H]3CCCC[C@H]4CC[C@@H](C(=O)NC(CCC(N)=O)C(=O)NCc5ccccc5)N4C3=O)[nH]c2c1 (some centres unmarked)
[2]; [6]
  IC50: < 30 µM

## NC(=O)CCC(NC(=O)[C@@H]1CCC2CCCC[C@H](NC(=O)c3cc4cc(C(F)(F)P(=O)(O)O)ccc4o3)C(=O)N21)C(=O)NCc1ccccc1 (some centres unmarked) [Example 65]
STAT3 protein; [3]
  IC50: > 10 µM
[2]; [5]
  IC50: > 100 µM

## CC(C)(C)C(=O)OCOP(=O)(Cc1ccc(C[C@H](NC(=O)OCC2c3ccccc3-c3ccccc32)C(=O)N[C@H]2CCCCC3CC[C@@H](C(=O)N[C@@H](CCC(N)=O)C(=O)NCc4ccccc4)N3C2=O)cc1)OCOC(=O)C(C)(C)C (some centres unmarked)
[1]; [7]
  IC50: < 10 µM
[2]; [6]
  IC50: < 10 µM

## CCCCCCCCCCCCCCCCOP(=O)(OCCCCCCCCCCCCCCCC)C(F)(F)c1ccc2cc(C(=O)N[C@H]3CCCC[C@H]4CC[C@@H](C(=O)N(CC)CC)N4C3=O)[nH]c2c1
[2]; [6]
  IC50: > 100 µM

## CC(C)(C)C(=O)OCOP(=O)(OCOC(=O)C(C)(C)C)C(F)(F)c1ccc2[nH]c(C(=O)N[C@H]3CCCCC4CC[C@@H](C(=O)NC(CCC(N)=O)C(=O)NCc5ccccc5)N4C3=O)cc2c1 (some centres unmarked) [Example 64]
[2]; [6]
  IC50: > 100 µM

## CCCCCCCCCCCCCCCCOP(=O)(OCCCCCCCCCCCCCCCC)C(F)(F)c1ccc2cc(C(=O)N[C@H]3CCCC[C@H]4CC[C@@H](C(=O)NCCc5cn[nH]c5)N4C3=O)[nH]c2c1
[2]; [6]
  IC50: > 100 µM

## NC(=O)CC[C@H](NC(=O)[C@@H]1CCC2CCCC[C@H](NC(=O)c3cc4cc(C(F)(F)P(=O)(O)O)ccc4[nH]3)C(=O)N21)C(=O)NCc1ccccc1 (some centres unmarked) [Example 59]
STAT3 protein
  IC50: < 1 µM
[2]; [5]
  IC50: > 100 µM

## CC(C)OC(=O)OCOP(=O)(OCOC(=O)OC(C)C)C(F)(F)c1ccc2[nH]c(C(=O)N[C@H]3CCCCC4CC[C@@H](C(=O)NCCc5cn[nH]c5)N4C3=O)cc2c1 (some centres unmarked) [Example 69]
[2]; [6]
  IC50: > 100 µM

## CC(C)(C)C(=O)OCOP(=O)(O)COc1ccc(C[C@H](NC(=O)OCc2ccccc2)C(=O)N[C@H]2CCCCC3CC[C@@H](C(=O)N[C@@H](CCC(N)=O)C(=O)NCc4ccccc4)N3C2=O)cc1 (some centres unmarked)
[1]; [7]
  IC50: > 50 µM
[2]; [6]
  IC50: > 50 µM

## CCCCCCCCCCCCCCCCNC(=O)C(CCC(N)=O)NC(=O)[C@@H]1CCC2CCCC[C@H](NC(=O)c3cc4cc(C(F)(F)P(=O)(OCOC(=O)C(C)(C)C)OCOC(=O)C(C)(C)C)ccc4[nH]3)C(=O)N21 (some centres unmarked) [Example 67]
[2]; [6]
  IC50: > 100 µM

## Cn1c(C(=O)N[C@H]2CCCCC3CC[C@@H](C(=O)NC(CCC(N)=O)C(=O)NCc4ccccc4)N3C2=O)cc2cc(C(F)(F)P(=O)(O)O)ccc21 (some centres unmarked) [Example 61]
STAT3 protein; [3]
  IC50: < 5 µM
[2]; [5]
  IC50: > 100 µM
